This passage reports IC50 and logD results from ChEMBL document CHEMBL1151087, “N-sulfonyl derivatives of 6,7-dichloro 3,4-dihydro-3-oxo-quinoxalinecarboxylate as glycine-site NMDA and AMPA antagonists” (Bioorg Med Chem Lett, 1993).

Each structure is given as a SMILES string. Bounds are passed on as bounds.

The target in series [1] is Glutamate receptor ionotropic AMPA (Homo sapiens, UniProt P42261+P42262+P42263+P48058).
Description: Tested for the affinity to the Ionotropic glutamate receptor AMPA using [3H]-AMPA as radioligand
Series [2] is described as follows: Partition coefficient was measured using a shake flask method with octanol/buffer at physiological pH. The class given is physicochemical.
The target in series [3] is Glutamate [NMDA] receptor. The series can be described thus: Tested for the affinity to the glycine site -NMDA receptor using [3H]Gly as radioligand. The class given is protein-complex assay.
For series [4], the species on record is Rattus norvegicus. Kind of series: Tested for the ability to suppress the spontaneous epileptiform discharge rate in a cortical wedge model. The class given is functional, organism-based.

In the case of `O=C(O)c1nc2cc(Cl)c(Cl)cc2nc1O` [6,7-DICHLORO-3-HYDROXY-2-QUINOXALINECARBOXYLIC ACID], the figures for the IC50 in series [1] and in series [3] were 6.7 µM and 0.46 µM, respectively. This molecule also yielded a logD in series [2] of -1.

In the case of `CS(=O)(=O)NC(=O)c1nc2cc(Cl)c(Cl)cc2nc1O`, the IC50 in series [1] was 14 µM; in series [4] it was 11 µM; in series [3], 0.36 µM. In series [2], this molecule registered a logD of -1.1.

In the case of `NS(=O)(=O)c1cccc2c1c([N+](=O)[O-])cc1nc(O)c(O)nc12` [NBQX], the IC50 in series [3] was more than 100 µM.

As to `O=C(O)c1cc(O)c2c(Cl)cc(Cl)cc2n1`, the IC50 in series [1] was more than 100 µM; in series [4], 5 µM; in series [3], 0.068 µM. The molecule further came in with a logD in series [2] of -0.56.

Turning to `O=C(NS(=O)(=O)c1ccccc1)c1nc2cc(Cl)c(Cl)cc2[nH]c1=O`, the IC50 in series [1] was found to be 4.3 µM; in series [4], 11 µM; in series [3] it was 0.12 µM. In series [2], this molecule showed a logD of 0.15.

`O=c1[nH]c2cc([N+](=O)[O-])c([N+](=O)[O-])cc2[nH]c1=O` [DNQX]: the IC50 in series [1] came to 0.2 µM; in series [3], 0.84 µM. In series [2], this molecule showed a logD of 0.09.
